# Reference: article PMC7280195, “Simple ammonium salts acting on sigma-1 receptors yield potential treatments for cancer and depression” (Scientific Reports, 2020)
# Like-named read-outs stand apart in the source and are kept apart here.
# Legend:
# sigma-2 receptor = molecular target: T1, sigma-2 receptor (Homo sapiens, UniProt Q5BJF2); experiment: biochemical; assay type: binding
# T1 construct: MCF7 cells were suspended in sigma-2 assay buffer (50 mM Tris-HCl; pH 8.0), sonicated (1 minute) and the homogenate was centrifuged; endogenous in cells; host or cells: MCF7 cells (gift), membrane pellet
# T1 sequence (Q5BJF2 whole entry): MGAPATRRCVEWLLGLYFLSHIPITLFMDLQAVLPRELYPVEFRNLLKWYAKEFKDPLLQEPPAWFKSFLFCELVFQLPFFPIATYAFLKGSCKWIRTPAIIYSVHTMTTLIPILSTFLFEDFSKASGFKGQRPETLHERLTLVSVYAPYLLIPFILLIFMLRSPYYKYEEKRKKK
# muscarinic receptor = molecular target: muscarinic receptor; parameters: method as in PMID 11834244; conditions: cited from earlier work
# mice [1] = experiment: Forced-swim test; assay type: in vivo
# MDA-MB-468 cells [2] = experiment: cells; assay type: cell-based
# MCF7 cells = assay type: cell-based
# MDA-MB-468 cells [3] = experiment: Fura-2 cytoplasmic calcium measurement in MDA-MB-468 cells; assay type: cell-based
# [4] = molecular target: muscarinic acetylcholine receptor; assay type: binding, rat; conditions: for mACh R affinity pKi ± SEM (n) / Ki: rat brain membranes; for mACh R affinity pKi ± SEM (n): 1.35 nM [3H] QNB; for Ki: read-out: mACh R affinity Ki; for mACh R Ki/σ-1 R Ki: ratio between Ki values
# MAC13 cells = experiment: MTS assay in MAC13 cells in vitro; assay type: cell-based, mouse; conditions: mean ± SEM, n = 6
# Description: Cells (10,000 cells per well, 100 μl) were seeded into 96-well plates and allowed to adhere overnight. The following day drugs were added and cells were permitted to proliferate for 24 hours before the addition of 10 μl CellTiter 96 AQueous Non-Radioactive Cell Proliferation Assay reagent (Promega, Southampton, UK) as previously described. Absorbance (490 nm) readings were taken at 0, 1, 2 and 3 hours to monitor formazan formation and rates of metabolic activity were compared.
# [5] = molecular target: noradrenaline transporter; conditions: read-out: Ki noradrenaline transport, previously published; cited from earlier work
# mice [6] = experiment: Tail suspension test; assay type: in vivo
# Description: Animals were acclimatised to laboratory conditions before the experiment. Each animal was used only once. […] All drugs were dissolved in normal saline and different doses were administered intraperitoneally in a fixed volume of 1 ml.100 g^−1 body weight 30 minutes before the animals were subjected to the test. […] Each mouse was considered immobile when it hung passively and completely motionless. The total immobility period was recorded and compared to vehicle control group.
# mice [7] = experiment: Locomotor activity (Actophotometer); assay type: in vivo; conditions: control 140 ± 15
# Description: All drugs were dissolved in normal saline and different doses were administered intraperitoneally in a fixed volume of 1 ml.100 g^−1 body weight 30 minutes before the animals were subjected to the test.
# Locomotor activity (ambulations) was measured by using a computerised Actophotometer (IMCORP, India). […] Mice were allowed to acclimatise to the observation chamber for a period of 2 minutes. The activity was monitored continuously for a period of 15 minutes. Locomotion was expressed in terms of total photobeam counts per 15 minutes per animal and compared to vehicle control groups as previously described.
# human 5-HT transporter = human 5-HT transporter (Homo sapiens, UniProt P31645); assay type: cell-based
# Chain of human 5-HT transporter (P31645 whole entry): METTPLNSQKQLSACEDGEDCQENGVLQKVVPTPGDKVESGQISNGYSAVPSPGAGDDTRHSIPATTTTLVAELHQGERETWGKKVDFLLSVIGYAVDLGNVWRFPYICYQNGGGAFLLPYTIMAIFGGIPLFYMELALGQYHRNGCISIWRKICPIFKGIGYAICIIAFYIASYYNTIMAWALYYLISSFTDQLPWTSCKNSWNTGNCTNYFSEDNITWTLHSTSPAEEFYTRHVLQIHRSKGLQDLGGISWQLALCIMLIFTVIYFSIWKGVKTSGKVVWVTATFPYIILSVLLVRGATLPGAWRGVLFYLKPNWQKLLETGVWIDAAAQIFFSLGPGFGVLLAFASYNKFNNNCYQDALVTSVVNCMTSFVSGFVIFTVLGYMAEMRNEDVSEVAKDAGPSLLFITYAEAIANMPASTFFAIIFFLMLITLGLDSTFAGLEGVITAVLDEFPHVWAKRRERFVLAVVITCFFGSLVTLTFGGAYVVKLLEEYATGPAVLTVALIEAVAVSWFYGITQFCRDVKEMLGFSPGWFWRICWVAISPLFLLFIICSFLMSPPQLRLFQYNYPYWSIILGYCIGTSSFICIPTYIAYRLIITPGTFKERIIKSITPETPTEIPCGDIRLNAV
# [8] = molecular target: T2, human dopamine transporter (Homo sapiens, UniProt Q01959); experiment: Monoamine transporter uptake assay, 293 cells expressing dopamine transporter; assay type: cell-based
# T2 construct: expressed in transfected cells
# T2 sequence (Q01959 whole entry): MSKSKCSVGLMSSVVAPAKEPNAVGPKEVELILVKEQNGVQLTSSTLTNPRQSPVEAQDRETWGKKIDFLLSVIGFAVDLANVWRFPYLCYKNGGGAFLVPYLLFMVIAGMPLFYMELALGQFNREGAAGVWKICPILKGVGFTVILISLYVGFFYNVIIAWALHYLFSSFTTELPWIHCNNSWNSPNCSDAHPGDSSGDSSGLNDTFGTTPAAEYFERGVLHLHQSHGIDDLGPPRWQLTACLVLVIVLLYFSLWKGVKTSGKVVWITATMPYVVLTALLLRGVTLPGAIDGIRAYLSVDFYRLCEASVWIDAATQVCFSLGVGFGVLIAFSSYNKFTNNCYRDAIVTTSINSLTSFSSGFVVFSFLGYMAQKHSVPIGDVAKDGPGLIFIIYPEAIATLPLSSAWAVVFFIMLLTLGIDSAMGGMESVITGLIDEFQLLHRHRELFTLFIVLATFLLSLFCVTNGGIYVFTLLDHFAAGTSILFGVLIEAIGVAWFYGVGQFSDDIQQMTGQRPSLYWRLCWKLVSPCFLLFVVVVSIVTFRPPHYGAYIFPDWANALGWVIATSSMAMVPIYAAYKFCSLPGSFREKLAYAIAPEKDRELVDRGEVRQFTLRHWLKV
# [9] = molecular target: human noradrenaline transporter (Homo sapiens, UniProt P23975); experiment: Monoamine transporter uptake assay, 293 cells expressing noradrenaline transporter; assay type: cell-based
# Chain of human noradrenaline transporter (P23975 whole entry): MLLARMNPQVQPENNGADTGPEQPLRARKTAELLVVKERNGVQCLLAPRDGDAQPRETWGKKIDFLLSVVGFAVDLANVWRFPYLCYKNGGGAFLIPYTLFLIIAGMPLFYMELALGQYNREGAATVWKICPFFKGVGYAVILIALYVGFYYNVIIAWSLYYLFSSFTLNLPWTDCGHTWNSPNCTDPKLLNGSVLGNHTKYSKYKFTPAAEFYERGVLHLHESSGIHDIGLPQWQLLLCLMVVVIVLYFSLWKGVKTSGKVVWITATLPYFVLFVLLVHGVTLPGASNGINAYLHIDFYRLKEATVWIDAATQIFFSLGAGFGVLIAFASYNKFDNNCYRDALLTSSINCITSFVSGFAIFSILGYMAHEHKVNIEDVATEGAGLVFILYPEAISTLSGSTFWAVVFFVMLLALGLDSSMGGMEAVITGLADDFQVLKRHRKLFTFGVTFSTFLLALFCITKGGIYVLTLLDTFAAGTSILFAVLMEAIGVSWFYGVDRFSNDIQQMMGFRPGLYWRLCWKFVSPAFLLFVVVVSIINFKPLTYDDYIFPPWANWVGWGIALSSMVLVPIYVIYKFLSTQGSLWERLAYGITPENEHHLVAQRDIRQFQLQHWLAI
# [10] = dipentylammonium 5 mg.kg−1 plus BD1047 4 mg.kg−1
compound,measurement,setting,value
NC1C2CC3CC(C2)CC1C3 (stereo not drawn) [2-adamantyl],σ-2 R affinity pKi ± SEM (n),sigma-2 receptor,5.5 ± 0.2 (3)
same,Ki,sigma-2 receptor; read-out: σ-2 R affinity Ki,3.5 µM
CC(C)=CCN1CC[C@]2(C)c3cc(O)ccc3C[C@H]1[C@H]2C [(+) pentazocine],pKi muscarinic receptor,muscarinic receptor,6.29 ± 0.06
"CN(C)CCN(C)CCc1ccc(Cl)c(Cl)c1 [BD1047, N’-[2-(3,4-dichlorophenyl)ethyl]-N,N,N’-trimethylethane-1,2-diamine, reference compound]","time spent immobile, forced-swim test","mice [1]; ip, 4 mg/kg, 0.1 h",217 ± 17 s
"CCCCC(CC)CNCC(CC)CCCC (stereo not drawn) [Bis(2-ethylhexyl), bis(2-ethylhexyl)ammonium]",σ-2 R affinity pKi ± SEM (n),sigma-2 receptor,4.0 ± 0.2 (3)
same,Ki,sigma-2 receptor; read-out: σ-2 R affinity Ki,91 µM
same,pIC50 reduction of cell metabolism,MDA-MB-468 cells [2],3.3 ± 0.1
same,"pIC50 reduction of cell metabolism, non-targeting control",MDA-MB-468 cells [2],3.37 ± 0.08
same,effect on MCF7 cells in MTS assay,MCF7 cells,without effect
same,pEC50 calcium response,MDA-MB-468 cells [3]; Fura-2 loaded MDA-MB-468 cells,2.9 ± 0.1
same,mACh R affinity pKi ± SEM (n),[4],3.9 ± 0.2 (6)
same,Ki,[4],120 µM
same,mACh R Ki/σ-1 R Ki,[4],4.1
same,pIC50 reduction in MAC13 cell metabolism,MAC13 cells,5.3 ± 0.2
same,MAC13 tumour growth compared to vehicle control,"MAC13 tumours; 10 mg.kg−1 i.v. daily from day 12, P < 0.001",statistically significant reduction in tumour growth
same,tolerability in tumour-bearing mice,"MAC13 tumours; 10 mg.kg−1 i.v. daily, grooming activity maintained",no negative signs
CCCCN [Butyl],σ-2 R affinity pKi ± SEM (n),sigma-2 receptor,3.26 ± 0.05 (3)
same,Ki,sigma-2 receptor; read-out: σ-2 R affinity Ki,550 µM
"CCCCCCCCCCN [Decyl, decylammonium]",σ-2 R affinity pKi ± SEM (n),sigma-2 receptor,5.41 ± 0.07 (3)
same,Ki,sigma-2 receptor; read-out: σ-2 R affinity Ki,3.9 µM
"CNCCCN1c2ccccc2CCc2ccccc21 [Desipramine, desipramine]",Ki,[5],0.0043 µM
"CCC(C)NC(C)CC (stereo not drawn) [Di-sec-butyl, di-sec-butylammonium]",σ-2 R affinity pKi ± SEM (n),sigma-2 receptor,5.2 ± 0.2 (3)
same,Ki,sigma-2 receptor; read-out: σ-2 R affinity Ki,6.3 µM
CCCCNCCCC [Dibutyl],σ-2 R affinity pKi ± SEM (n),sigma-2 receptor,5.64 ± 0.07 (3)
same,Ki,sigma-2 receptor; read-out: σ-2 R affinity Ki,2.3 µM
"C1CCC(NC2CCCCC2)CC1 [Dicyclohexyl, dicyclohexylammonium]",Ki,sigma-2 receptor,0.138 µM
same,IC50,"MDA-MB-468 cells [2]; Homo sapiens, MDA-MB-468, 24 h, read-out: pIC50 reduction of cell metabolism (converted)",126 µM
same,effect on MCF7 cells in MTS assay,MCF7 cells; MCF7 cells (sigma-2 only),without effect
CCNCC.Cl [Diethyl],σ-2 R affinity pKi ± SEM (n),sigma-2 receptor,<3 (3)
CC(C)CNCC(C)C [Diisobutyl],σ-2 R affinity pKi ± SEM (n),sigma-2 receptor,5.2 ± 0.2 (3)
same,Ki,sigma-2 receptor; read-out: σ-2 R affinity Ki,6.6 µM
CC(C)NC(C)C [Diisopropyl],σ-2 R affinity pKi ± SEM (n),sigma-2 receptor,4.1 ± 0.1 (3)
same,Ki,sigma-2 receptor; read-out: σ-2 R affinity Ki,71 µM
CNC [Dimethyl],σ-2 R affinity pKi ± SEM (n),sigma-2 receptor,<3 (3)
"CCCCCCCCNCCCCCCCC [Dioctyl, dioctylammonium]",σ-2 R affinity pKi ± SEM (n),sigma-2 receptor,7.9 ± 0.5 (3)
same,Ki,sigma-2 receptor; read-out: Ki for sigma-2 receptors,0.013 µM
same,Ki,sigma-2 receptor; read-out: σ-2 R affinity Ki,0.014 µM
same,pIC50 reduction of cell metabolism,MDA-MB-468 cells [2],5.0 ± 0.2
same,behaviour in the calcium buffer,MDA-MB-468 cells [3]; calcium response could not be assessed,precipitation was observed
"CCCCCNCCCCC [Dipentyl, dipentylammonium]",σ-2 R affinity pKi ± SEM (n),sigma-2 receptor,6.9 ± 0.2 (3)
same,Ki,sigma-2 receptor; read-out: σ-2 R affinity Ki,0.12 µM
same,mACh R affinity pKi ± SEM (n),[4],3.4 ± 0.2 (5)
same,Ki,[4],380 µM
same,mACh R Ki/σ-1 R Ki,[4],8840
same,"time spent immobile, forced-swim test","mice [1]; 5 mg.kg−1 i.p., 6 minutes, control 233 ± 10",80 ± 13 s
same,"time spent immobile, forced-swim test",mice [1]; [10],185 ± 5 s
same,"time spent immobile, tail suspension test","mice [6]; 5 mg.kg−1, 6 minutes, control 235 ± 19",116 ± 7 s
same,"time spent immobile, tail suspension test",mice [6]; [10],182 ± 30 s
same,locomotion,mice [7]; 5 mg.kg−1 alone,128 ± 19 events in 15 minutes
same,locomotion,mice [7]; [10],114 ± 14 events in 15 minutes
same,pIC50 serotonin reuptake,human 5-HT transporter,3.0 ± 0.2
same,IC50,human 5-HT transporter; read-out: IC50 serotonin reuptake,1100 µM
same,pIC50 dopamine transport,[8],3.2 ± 0.2
same,IC50,[8]; read-out: IC50 dopamine transport,600 µM
same,pIC50 noradrenaline transport,[9],3.6 ± 0.1
same,IC50,[9]; read-out: IC50 noradrenaline transport,200 µM
CCCNCCC.Cl [Dipropyl],σ-2 R affinity pKi ± SEM (n),sigma-2 receptor,4.10 ± 0.07 (3)
same,Ki,sigma-2 receptor; read-out: σ-2 R affinity Ki,79 µM
"CNCCC(Oc1ccc(C(F)(F)F)cc1)c1ccccc1 (stereo not drawn) [Fluoxetine, fluoxetine, reference compound]","time spent immobile, forced-swim test","mice [1]; 10 mg.kg−1 i.p., 6 minutes, control 233 ± 10",153 ± 19 s
same,"time spent immobile, tail suspension test","mice [6]; 10 mg.kg−1, 6 minutes, control 235 ± 19",126 ± 22 s
